The results in this text go back to a melting point compilation (Tetko et al.; mined from patent text by program, amines drawn as free bases though some values may be those of a salt).

Molecules are shown by their SMILES. Some results are limits rather than exact numbers.

As usually defined, the melting point is the temperature, or range, at which the solid turns liquid. For the molecule `COc1ccc(Oc2c(N)cc(C(=O)O)cc2SCc2ccccc2)cc1`, the melting point fell in the range of 158 to 161 °C.
In the case of `COc1cc2c(cc1OC)C1=NCC(CBr)N1C(SC)=N2` (stereo not drawn) it was 225 °C.
The figure for `COc1ccc(-c2cc3cc(Cl)ccc3o2)cc1` is 183 to 185 °C; for `CCCCCCCCCCCCCCCCCCSSSSCCCCCCCCCCCCCCCCCC` it is 44 to 45 °C.
`N#Cc1cc(Cn2cncn2)cc(-c2ccc(OS(N)(=O)=O)c(Cl)c2)c1`: the melting point was 163 to 164 °C.
The molecule `O=C(O)/C=C/c1ccc(C(=O)c2c(-c3ccc(O)cc3)sc3cc(O)ccc23)cc1` had a melting point of 155 to 160 °C.
The figure for `CC(C)c1cc2c(cc1O)C(=O)CCC2` is 149 to 150 °C; for `COC(=O)C1Cc2c(C)ccc(C)c2N1` (stereo not drawn) it is 80 °C; for `O=CN(O)[C@@H](CN1C(=O)CNC1=O)CS(=O)(=O)c1ccc(Oc2ccc(OC(F)(F)F)cc2)cc1` it is 154 °C.
The molecule `CCCCOC1C=CC(=O)N1S(=O)(=O)c1ccccn1` (stereo not drawn) gave a melting point of 74 to 75 °C.
In the case of `Nc1ccc2c3c(cccc13)C(=O)N(CCCCBr)C2=O` it was 175 to 176 °C; in that of `CCOC(=O)CCc1cnn2c(N(C)c3ccccc3)ncnc12`, 74 °C.
In the case of `NC(=O)Cc1ccc2c(c1)CCc1ccccc1S2` it was 188 to 189 °C; in that of `CCCc1nc2cnc3ccccc3c2n1CCCCNS(C)(=O)=O`, 133 to 135 °C.
`COc1ccc2c(c1)Sc1c(cc(OC)c(OC)c1Br)N2C(C)=O` showed a melting point of 147 to 149 °C.
`CCCCCCCCc1c(C)[nH]c(C)c(I)c1=O` registered a melting point of 224 to 226 °C.
As to `COC(=O)C(Cl)Cc1ccc2c(c1)NC(=O)C(Cc1ccccc1)O2` (stereo not drawn), the melting point fell in the range of 124 to 127 °C.
The figure for `O=C(NS(=O)(=O)C=Cc1ccccc1)N1CCC(CCCc2ccc(O)cc2)CC1` is 132 to 135 °C; for `CCOC(=O)C=C1CSC(=N)N1N` it is 135 to 137 °C; for `CN(CCc1ccc2c(c1)oc(=O)n2C)Cc1ccccc1` it is 72 to 73 °C.
Take `Cn1c2c(c3cccc(-c4ccccc4)c31)C(=O)NCC2`: the melting point was 242 to 245 °C.
The figure for `NC(=O)c1[nH]c2ccccc2c1-c1ccc(NC(=O)Nc2ccccc2F)cc1` is 146 to 148 °C; for `C(=C\c1cc(/C=C/c2ccc3[nH]ccc3c2)n[nH]1)/c1cccc(OCc2ccccn2)c1` it is 183 to 186 °C; for `COC(=O)[C@H](Cc1ccc(OC(C)=O)c(OC(C)=O)c1)NC(=O)CNC(=O)OCc1ccccc1` it is 130 to 131 °C.
The molecule `CC(C)NC(=S)NC(=O)c1ccc(C#N)cc1` yielded a melting point of 156 to 157 °C.
`O=Cc1c(Cl)cc(Cl)cc1OCc1ccc(F)cc1` displayed a melting point of 107 to 108 °C.
In the case of `CN1CCC(C2=Nc3ccccc3N(C)c3ccccc32)CC1` it was 119 to 121 °C.
`O=C(O)C(Cc1ccccc1)NCC1c2c(c3ccccc3c3ccccc23)-c2c1c1ccccc1c1ccccc21` (stereo not drawn) showed a melting point of 178 to 180 °C.
Regarding `CCOc1c(-c2ccc(O)c(OC)c2)oc2cc(OC)cc(O)c2c1=O`, the melting point was in the range of 168 to 169 °C.
In the case of `CCOC(=O)c1[nH]c(C)c2c1CCC2` it was 166 to 167 °C; in that of `FC(F)(F)c1cccc(-c2ccc3nnc(C(F)(F)F)n3n2)c1`, 189 °C.
The figure for `CN(C)CCOc1cccc2c1c1cccc3c1n2C(c1ccccc1)CO3` (stereo not drawn) is 117 to 118 °C; for `CCn1nc(OCC(=O)c2cccs2)c(-c2ccc(F)cc2)c1-c1ccc(S(C)(=O)=O)cc1` it is 163 to 164 °C; for `COC(=O)c1ccccc1Oc1ccc(Br)cc1[N+](=O)[O-]` it is 82 to 83 °C.
With `OCCCc1nc2ccccn2n1`, the melting point lay within 71.5 to 73 °C.
The figure for `CC(=Cc1cccc([N+](=O)[O-])c1)C(=O)Oc1ccc(Cl)cc1` is 102 °C.
The figure for `O=C(CC1CCCCC1)Nc1c(Cl)ccc2nc(N3CCC(c4noc(=O)[nH]4)CC3)ccc12` is 233 to 235 °C; for `CC(C(=O)O)c1ccc(Oc2ccc(F)cc2F)cc1` (stereo not drawn) it is 105 to 106 °C; for `O=[N+]([O-])c1ccc(Cl)nc1Nc1ccccc1` it is 95 to 98 °C.
In the case of `CC(C)(C)NS(=O)(=O)c1cccc(NC(=O)c2cnn3c(C(F)F)cc(-c4ccc(C(F)(F)F)cc4)nc23)c1` it was 228 °C.
In turn, `CC(C)Cc1ccc(CCCCc2cc3c(s2)NC(=S)CN=C3c2ccccc2Cl)cc1` yielded a melting point of 133 to 135 °C.
In the case of `CCCCN1CCC(CNC(=O)c2ccc(N)n3cc(CCC)nc23)CC1`, the melting point is 172 °C.
In the case of `OC1(CNc2c(Br)cnc3ccccc23)CCCCC1` it was 130 to 132 °C; in that of `CCCCCCCCCCCCCCCCCC(=O)NC#N`, 74 to 75 °C; in that of `COc1cc(COc2nn(Cc3ccccc3)cc2C(=O)O)ccc1OCc1nc(-c2ccccc2)oc1C`, 162 to 163 °C.
The figure for `COC(=O)Cc1cccc(OC)c1OCCCc1cn(-c2ccc(C(=O)O)nn2)nc1C(C)C` is 146 to 147 °C.
The figure for `COc1ccc2c(c1)CCC1CCN(CO)C(=O)C(CC(C)N(C)C(C)C)=C21` (stereo not drawn) is 158 to 161 °C; for `COc1ccccc1N1CCN(C(=O)Nc2cc(C(C)=O)c(C)nc2OC)CC1` it is 153 to 154 °C.
For the molecule `C1=C(CCCN2CCCCC2)c2ccccc2C12CCCCC2`, the melting point lay within 146 to 148 °C.
In turn, `CCS(=O)(=O)CCC(=O)NCC(=O)N1Cc2ccccc2Oc2ccc(Cl)cc21` returned a melting point of 108 to 109 °C.
Regarding `Cc1nn(-c2ccccn2)c2nc3ccc(C(F)(F)F)cc3c(Cl)c12`, the melting point was 206 °C.
In the case of `CCC1(CC)c2cc(-c3ccc(-c4ccc(O)cc4)cc3)ccc2-c2ccc(-c3ccc(-c4ccc(O)cc4)cc3)cc21` it was greater than 300 °C.
The figure for `CC(C)(C)OC(=O)NCC(=O)N1CCC[C@H]1C(=O)OC[C@H](Cc1ccccc1)Nc1ccc(O)c2c1C(=O)c1c(O)cccc1C2=O` is 100 °C.
The molecule `CN(C(=O)COc1cc(-c2ccccc2)nc2ccccc12)N1CCOCC1` gave a melting point of 189 °C.
The figure for `CONc1cc(Cl)nc(S(C)(=O)=O)n1` is 135 °C; for `CCCc1c(OCCCCCOc2c(C(C)=O)ccc(OCC(=O)O)c2CCC)ccc(C(C)=O)c1O` it is 86 to 89 °C; for `CC(n1ncn(-c2ccc(N3CCN(c4ccc(O)cc4)CC3)cc2)c1=O)C(F)(F)F` (stereo not drawn) it is 215 °C.
In the case of `Cc1c(Nc2c(C#N)cnc3sc(-c4ccc(OCCN(C)C)cc4)cc23)ccc2[nH]ccc12` it was 182 to 184 °C; in that of `COc1ccc2c(=O)c3ccccc3oc2c1`, 127 to 129 °C.
The figure for `Cn1cc(C(=O)NCc2ccc(Cl)cc2)c(=O)c2cc(CN3CCOCC3)cc(F)c21` is 187 to 189 °C.
As to `FC(F)(F)c1cc(Cl)c(-c2nc(C(F)(F)F)c[nH]2)c(Cl)c1`, the melting point lay in the range of 213 to 215 °C.
In the case of `CCCCN(CCCC)S(=O)(=O)c1cc(C(=O)O)ccc1Cl` it was 93 to 96 °C; in that of `COCc1nc2c(N)nc3cc(OCc4ccccc4)ccc3c2n1CCc1ccccc1`, 195 to 197 °C.
